Earlier results as cited in patent US20050113433A1, “Compositions of a phenyl acetic acid cyclooxygenase-2 selective inhibitor and a cholinergic agent for the treatment of reduced blood flow or trauma to the central nervous system” (Pharmacia Corporation, priority 2003, published 2005).

Conditions: administered to subjects following stroke

## C[N+](C)(C)CCOP(=O)(O)OP(=O)(O)OC[C@H]1O[C@@H](n2ccc(N)nc2=O)[C@H](O)[C@@H]1O [citicoline]
  behavioral parameters: improvement in behavioral parameters
  infarction volume: decrease in infarction volume
